The test system of the first experiment is Human monocytes. In words: monocyte chemotaxis in 48-well microchemotaxis chamber. The class given is cell-based. To be noted: 0.1 nmol/L - 10 nmol/L in the lower wells. Here is the method: Human monocytes are isolated from freshly drawn blood of healthy volunteers using serial […] gradient centrifugation, as described elsewhere. Cells are cultured for 16 hours in RPMI-1640 media supplemented with 0.5% human serum to become quiescent after isolation. Purity of the cells is >95% as determined by flow cytometry analysis. Monocyte chemotaxis is assayed in a 48-well microchemotaxis chamber (Neuroprobe, Gaithersburg, MD) in serum-free media. Wells in the upper and lower chamber are separated by a polyvinylpyrrolidone-free polycarbonate membrane (pore size 5 µm; Costar). Freshly isolated monocytes at a density of 5 × 10^5/mL are incubated for 2.5 hours with recombinant C-peptide (Sigma), before migrated cells on the bottom face of the filter are stained and counted under the light microscope. Maximal chemotactic activity is measured with […] N -formyl-methionyl-leucyl-phenylalanine (f-MLF; Sigma Chemical Co), and checkerboard analysis is used to distinguish chemotaxis from chemokinesis.
Chemotaxis is tested with SEQ ID NO:12 ([…]), SEQ ID NO:11 ([…]), SEQ ID NO:24 ([…]) or SEQ ID NO:25 ([…]). Exposure of cells to lactose is used to specifically dissociate the 67-kD ERC. Controls for lactose included glucose, fructose, and mannose, none of which affect the 67-kD ERC. In each case, monocytes cells are exposed to the relevant concentrations of SEQ ID NO:12 ([…]), SEQ ID NO:11 ([…]), SEQ ID NO:24 ([…]) or SEQ ID NO:25 ([…]) (10-9 to 10-5 mol/L), for 30 minutes before the chemotaxis assays are started. […] Monocytes in the upper wells of the assay chamber are exposed to varying concentrations of SEQ ID NO:12 ([…]), SEQ ID NO:11 ([…]), SEQ ID NO:24 ([…]) or SEQ ID NO:25 ([…]) for 30 minutes before stimulation by SEQ ID NO:19 (VGVAPG) (0.1 nmol/L - 10 nmol/L) in the lower wells. […] SEQ ID NO:12 ([…]), SEQ ID NO:11 ([…]), SEQ ID NO:24 ([…]), or SEQ ID NO:25 ([…]) derived chemotactic activity is eliminated by competition with Val-Gly-Val-[…]-Pro-Gly (SEQ ID NO:19 (VGVAPG)), a repetitive peptide found in human elastin that binds to cellular elastin receptors. Monocyte chemotaxis in response to both SEQ ID NO:19 (VGVAPG) or SEQ ID NO:12 ([…]), SEQ ID NO:11 ([…]), SEQ ID NO:24 ([…]), or SEQ ID NO:25 ([…]) is abolished in the presence of lactose, a galactosugar that specifically dissociates the 67-kD ERC, but it is unaffected by glucose, fructose, or mannose.
Consider “VGVAPG (Immunomodulatory peptide) [SEQ ID NO:19, reference compound]”, for which the monocyte migration entry is reported as “concentration-dependent increase”.

The same experiment, now with this note: 0.1 mmol/L.
For the molecule “AQGVQPGQ (Immunomodulatory peptide) [SEQ ID NO:25]”, the “chemotactic activity at a stated concentration” value was “good activity”.
Same read-out and setting: under “LQGVLPGQ (Immunomodulatory peptide) [SEQ ID NO:12]” stands “good activity”; under “AQGVLPGQ (Immunomodulatory peptide) [SEQ ID NO:11]”, “good activity”; under “LQGVQPGQ (Immunomodulatory peptide) [SEQ ID NO:24]”, “good activity”.

The same experiment, now with this note: 10-9 to 10-5 mol/L.
With “AQGVQPGQ (Immunomodulatory peptide) [SEQ ID NO:25]”, the “induction of monocyte chemotaxis” value was “induce chemotaxis in a concentration-dependent manner”.
Regarding “LQGVLPGQ (Immunomodulatory peptide) [SEQ ID NO:12]”, the “induction of monocyte chemotaxis” value is on record as “induce chemotaxis in a concentration-dependent manner”.
For the molecule “AQGVLPGQ (Immunomodulatory peptide) [SEQ ID NO:11]”, the “induction of monocyte chemotaxis” value is reported as “induce chemotaxis in a concentration-dependent manner”.
For “LQGVQPGQ (Immunomodulatory peptide) [SEQ ID NO:24]”, the “induction of monocyte chemotaxis” value is on record as “induce chemotaxis in a concentration-dependent manner”.

The same experiment, now with this note: competition with SEQ ID NO:19.
On to “AQGVQPGQ (Immunomodulatory peptide) [SEQ ID NO:25]”, for which the “peptide derived chemotactic activity under competition with VGVAPG” value (shortened to “peptide derived chemotactic activity”) is given as “eliminated”.
As for “LQGVLPGQ (Immunomodulatory peptide) [SEQ ID NO:12]”, the “peptide derived chemotactic activity” value is recorded as “eliminated”.
As to “AQGVLPGQ (Immunomodulatory peptide) [SEQ ID NO:11]”, the “peptide derived chemotactic activity” value is given as “eliminated”.
As for “LQGVQPGQ (Immunomodulatory peptide) [SEQ ID NO:24]”, the “peptide derived chemotactic activity” value is recorded as “eliminated”.

Staying with this experiment, now noted: control sugars.
As to “AQGVQPGQ (Immunomodulatory peptide) [SEQ ID NO:25]”, the “monocyte chemotaxis in the presence of glucose, fructose, or mannose” value (shortened to “monocyte chemotaxis … or mannose”) is listed as “unaffected”.
In the case of “LQGVLPGQ (Immunomodulatory peptide) [SEQ ID NO:12]”, the “monocyte chemotaxis … or mannose” value is given as “unaffected”.
On the same count and under the same terms, under “VGVAPG (Immunomodulatory peptide) [SEQ ID NO:19, reference compound]” stands “unaffected”.
Regarding “AQGVLPGQ (Immunomodulatory peptide) [SEQ ID NO:11]”, the “monocyte chemotaxis … or mannose” value is “unaffected”.
For the molecule “LQGVQPGQ (Immunomodulatory peptide) [SEQ ID NO:24]”, the “monocyte chemotaxis … or mannose” value is given as “unaffected”.

The same experiment, now with this note: lactose dissociates the 67-kD ERC.
“AQGVQPGQ (Immunomodulatory peptide) [SEQ ID NO:25]”: the “monocyte chemotaxis in the presence of lactose” value (“monocyte chemotaxis … of lactose” for short) is listed as “abolished”.
Regarding “LQGVLPGQ (Immunomodulatory peptide) [SEQ ID NO:12]”, the “monocyte chemotaxis … of lactose” value is on record as “abolished”.
For the molecule “VGVAPG (Immunomodulatory peptide) [SEQ ID NO:19, reference compound]”, the “monocyte chemotaxis … of lactose” value is on record as “abolished”.
As to “AQGVLPGQ (Immunomodulatory peptide) [SEQ ID NO:11]”, the “monocyte chemotaxis … of lactose” value is given as “abolished”.
On to “LQGVQPGQ (Immunomodulatory peptide) [SEQ ID NO:24]”, for which the “monocyte chemotaxis … of lactose” value is recorded as “abolished”.

Still in this experiment, the particulars now being: preincubation 30 minutes.
With “AQGVQPGQ (Immunomodulatory peptide) [SEQ ID NO:25]”, the “chemotactic response to f-MLF after preincubation of monocytic cells with peptide” value (shortened to “chemotactic response to f-MLF”) was “does not alter”.
Consider “LQGVLPGQ (Immunomodulatory peptide) [SEQ ID NO:12]”, for which the “chemotactic response to f-MLF” value was “does not alter”.
As to “AQGVLPGQ (Immunomodulatory peptide) [SEQ ID NO:11]”, the “chemotactic response to f-MLF” value is given as “does not alter”.
Still for that read-out and setting: the value for “LQGVQPGQ (Immunomodulatory peptide) [SEQ ID NO:24]” was “does not alter”.

Still in this experiment, the particulars now being: same concentration of f-MLF.
As to “AQGVQPGQ (Immunomodulatory peptide) [SEQ ID NO:25]”, the “chemotactic potency compared with f-MLF” value is “considerably more potent”.
Turning to “LQGVLPGQ (Immunomodulatory peptide) [SEQ ID NO:12]”, the “chemotactic potency compared with f-MLF” value is “considerably more potent”.
For the molecule “AQGVLPGQ (Immunomodulatory peptide) [SEQ ID NO:11]”, the “chemotactic potency compared with f-MLF” value is listed as “considerably more potent”.
On to “LQGVQPGQ (Immunomodulatory peptide) [SEQ ID NO:24]”, for which the “chemotactic potency compared with f-MLF” value was “considerably more potent”.

For the next experiment, the system named is mTOR.
Assay: not given
To be noted: alone or in combination; cited from earlier work.
Consider `C[C@@H](O)[C@H](N)C(=O)O` [L-Threonine], for which the “activity as activators of mTOR or inhibitors of autophagy compared with other amino acids” value is “no or opposite effects”.
Regarding `CC[C@H](C)[C@H](N)C(=O)O` [L-Isoleucine], the “activity as activators of mTOR or inhibitors of autophagy compared with other amino acids” value is on record as “more potent”.
Turning to `CSCC[C@H](N)C(=O)O` [L-Methionine], the “activity as activators of mTOR or inhibitors of autophagy compared with other amino acids” value is recorded as “no or opposite effects”.
Turning to `N=C(N)NCCC[C@H](N)C(=O)O` [L-Arginine], the “activity as activators of mTOR or inhibitors of autophagy compared with other amino acids” value was “more potent”.
`NCCCC[C@H](N)C(=O)O` [L-Lysine]: the “activity as activators of mTOR or inhibitors of autophagy compared with other amino acids” value is reported as “no or opposite effects”.
Regarding `NCC(=O)O` [L-Glycine], the “activity as activators of mTOR or inhibitors of autophagy compared with other amino acids” value was “more potent”.
With `N[C@@H](CCC(=O)O)C(=O)O` [L-Glutamic Acid], the “activity as activators of mTOR or inhibitors of autophagy compared with other amino acids” value was “no or opposite effects”.
As to `N[C@@H](Cc1ccccc1)C(=O)O` [L-Phenylalanine], the “activity as activators of mTOR or inhibitors of autophagy compared with other amino acids” value is on record as “no or opposite effects”.
With `CC(C)[C@H](N)C(=O)O` [L-Valine], the “activity as activators of mTOR or inhibitors of autophagy compared with other amino acids” value was “more potent”.
For `O=C(O)[C@@H]1CCCN1` [L-Proline], the “activity as activators of mTOR or inhibitors of autophagy compared with other amino acids” value is given as “more potent”.
On to `N[C@@H](Cc1ccc(O)cc1)C(=O)O` [L-Tyrosine], for which the “activity as activators of mTOR or inhibitors of autophagy compared with other amino acids” value is given as “no or opposite effects”.
`N[C@@H](CO)C(=O)O` [L-Serine]: the “activity as activators of mTOR or inhibitors of autophagy compared with other amino acids” value is given as “no or opposite effects”.
With `C[C@H](N)C(=O)O` [L-Alanine], the “activity as activators of mTOR or inhibitors of autophagy compared with other amino acids” value is “more potent”.
In the case of `CC(C)C[C@H](N)C(=O)O` [L-Leucine], the “activity as activators of mTOR or inhibitors of autophagy compared with other amino acids” value is given as “more potent”.

Staying with this experiment, now noted: cited from earlier work.
In the case of `NCC(=O)O` [L-Glycine], the “amino-acid-stimulated mTOR complex 1 activation” value is recorded as “improves”.

The same experiment, now with this note: human cells; cited from earlier work.
Consider `O=C(O)[C@@H]1CCCN1` [L-Proline], for which the “mTOR associated autophagic inhibitory effects on human cells” value was “most prominent”.
For `C[C@H](N)C(=O)O` [L-Alanine], the “mTOR associated autophagic inhibitory effects on human cells” value is recorded as “most prominent”.
Take `CC(C)C[C@H](N)C(=O)O` [L-Leucine]: the “mTOR associated autophagic inhibitory effects on human cells” value is on record as “most prominent”.

The record behind these values is US20230173089A1, “Q-ER PEPTIDE” (Biotempt B.V., priority 2019, published 2023).
